According to US4687773A, “(+)-N-N-propylnorapomorphine and selective limbic activity” (priority 1985, dated 1987):
Structures can show the parent of a compound that is named as a salt. Where two headings read alike, the source gives them in different places.

Tests used:
[1] = system: dopamine (DA) receptors in the basal ganglia (corpus striatum); assay: Stereotyped licking and gnawing behavior rating in the rat; type: in vivo
Excerpt: Stereotypy: The mean stereotyped licking and gnawing behavioral rating scheme developed by Tarsy and Baldessarini^8 was used. […]
Stereotypy scores were rated for one hour as described in […]

[2] = Catalepsy (latency to resume normal posture); type: in vivo, rat; details: s.c., maximum 18.0
Protocol: Catalepsy: This measure of muscle rigidity is assessed by having animals in abnormal body positions and timing their duration of maintaining these. This is done by placing rats on a wire grid placed at a 45° angle to the benchtop, or by placing their forelimbs on a raised horizontal metal bar, and timing the latency to resume a normal posture by stopwatch.
(§1) All data presented in the Tables below are expressed as the mean results from 4-6 rats per condition, ±S.E.M. Stereotypy is expressed in rating units (maximum=3.0) and activity is expressed in arbitrary units of percent change, derived from EAM counts per unit time, relative to activity in control (saline) animals set at zero.

[3] = biological target: T1, Dopamine (DA) sensitive adenylate cyclase (Rattus norvegicus, UniProt P18901); assay: Stimulation of formation of cyclic AMP in rat striatal homogenate; type: biochemical
T1 construct: homogenates of rat corpus striatum; from tissue; host or cells: rat corpus striatum homogenate
T1 sequence (P18901 whole entry): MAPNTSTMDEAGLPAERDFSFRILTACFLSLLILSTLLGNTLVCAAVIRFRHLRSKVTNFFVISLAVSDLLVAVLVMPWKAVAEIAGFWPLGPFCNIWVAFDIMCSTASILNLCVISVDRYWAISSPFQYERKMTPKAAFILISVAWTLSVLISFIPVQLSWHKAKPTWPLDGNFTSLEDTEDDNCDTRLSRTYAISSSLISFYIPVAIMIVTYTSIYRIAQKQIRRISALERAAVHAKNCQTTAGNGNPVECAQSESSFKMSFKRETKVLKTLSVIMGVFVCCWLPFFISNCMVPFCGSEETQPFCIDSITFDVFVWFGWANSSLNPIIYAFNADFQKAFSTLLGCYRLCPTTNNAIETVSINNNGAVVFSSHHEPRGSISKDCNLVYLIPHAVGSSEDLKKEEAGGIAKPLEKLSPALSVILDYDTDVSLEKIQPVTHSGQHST
Excerpt: assayed in homogenates of corpus striatum obtained from rat brain. The
method of assay of the activity of DAsensitive adenylate cyclase by the
rate of formation of cAMP above a basal (no agonist) level is described
under Experimental Section. The data are mean values of cAMP levels in […]

Dopamine Receptors [4] = type: binding, calf; details: ligand [3H]APO (0.5 nM)
[5] = system: dopamine (DA) receptors in the limbic system and basal ganglia; assay: Total motor activity, electronic activity monitor (EAM); type: in vivo, rat
Protocol: (§2) Activity: Overall motor activity was measured by use of the self-recording Stoelting electronic activity monitor method described previously by Stewart, Campbell, Sperk, and Baldessarini^9. Total activity is obtained by setting monitor sensitivity so as to detect both locomotion and small movements (such as grooming, sniffing, and chewing) as would be prominent in stereotyped responses that tend to diminish locomotion and increase sniffing, licking, and chewing movements. Locomotor activity is detected selectively by setting monitor sensitivity to detect large, locomotor movements, and to minimize smaller movements already described.
as §1
All the posttreatment doses of (+)APO were 3.0 mg/kg, s.c. The data
All posttreatment doses of (+)NPA were 3 mg/kg, s.c. The data are similar

[6] = system: dopamine (DA) receptors in the limbic system; assay: Locomotor activity (spontaneous or aroused by (-)APO / (-)NPA), electronic activity monitor; type: in vivo, rat; details: for Locomotion: Table 5; for effect on locomotor-arousal activity (in words): with or without (-) isomer, Hydrochloride
Protocol: as §2
Rats (mean N=6 per condition) were tested for locomotor activity for 60 min following a single dose of (-)APO (0.3 mg/kg, SC), or its vehicle ("placebo" condition). The S(+) isomers were administered in a range of doses from 0 or 0.1 to 30 mg/kg, SC immediately following injection of (-)APO or its vehicle. Data are presented in FIG. 2 as mean EAM activity counts per hour SEM. In that figure, the dashed line labeled "control" represents the mean activity of rats given vehicle only and no aporphine (SD values are indicated by parallel light lines above and below the control mean).
Test agents (11substituted-N--propylnoraporphine isomers were given at a
dose of 3 mg/kg, ip (in 2 ml/kg) just prior to (-)apomorphine (APO, at 0.
mg/kg, ip, in 1 ml/kg) to rats (N = 6) tested in an electronic activity

Dopamine Receptors [7] = type: binding, calf; details: ligand [3H]ADTN (0.5 nM)
[8] = biological target: T2, rat liver catechol O-methyl-transferase (COMT) (Rattus norvegicus, UniProt P22734); assay: Isomeric substrate selectivity for rat liver COMT; type: biochemical
T2 construct: partially purified rat liver catechol O-methyl-transferase (COMT); from tissue; host or cells: rat liver, ammonium sulfate precipitation and dialysis
T2 sequence (P22734 1-221 isoform P22734-2): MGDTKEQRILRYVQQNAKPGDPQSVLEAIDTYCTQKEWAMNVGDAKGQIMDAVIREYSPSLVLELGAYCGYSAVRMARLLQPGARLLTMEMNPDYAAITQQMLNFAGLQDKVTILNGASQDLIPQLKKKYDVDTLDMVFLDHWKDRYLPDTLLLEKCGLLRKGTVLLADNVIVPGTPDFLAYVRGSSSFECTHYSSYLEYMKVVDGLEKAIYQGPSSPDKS

[9] = system: DA in the limbic system (nucleus accumbens septi); assay: Arousal (locomotor activity) induced by DA injected into nucleus accumbens septi; type: in vivo, rat; details: for activity counts (arousal induced by 16 μg DA in accumbens): 30 min, DA control 238 ± 38
Protocol: An experiment shown in Table 9 involves testing the effects of S(+) isomers of apomorphine (APO) and N-propylnorapomorphine (NPA) given systemically (intraperitoneally, ip), as well as S(+) methylenedioxy-N-propylnorapomorphine (MDO-NPA) given ip or orally (po, by orogastric intubation). […]. […] Activity was monitored for 30 min after injection of DA into the brain, which was done at 10 min after systemic dosing with an S(+)aporphine test compound.
Data are mean activity counts ± SEM (N = 6) for rats given DA into the
medial accumbens after pretreatment with an inhibitor of monoamine oxidas
(MA0), and monitored on EAM for 30 min (aporphine given 10 min before DA
systemicallyintraperitoneally [ip] or orally [po].

[10] = Table 5, (+)NPA 3 mg/kg s.c. after (-)NPA 0.3 mg/kg
[11] = Table 5, (+)NPA 3 mg/kg s.c. after (-)NPA 3.0 mg/kg
[12] = Table 5, (+)NPA 3 mg/kg s.c., (-)NPA 0
[13] = 2.5 min, read-out: cAMP production, % of control

Structure (SMILES): CCCN1CCc2cccc3c2[C@@H]1Cc1ccc(O)c(O)c1-3 [(+)NPA, (S)-N-n-Propylnorapomorphine Hydrochloride]
- Stereotyped behavior induced by (-)APO, Percent of Control ([1]; (+)NPA 3 mg/kg IP after (-)APO 0.3 mg/kg IP): 100.0 ± 10.6% of Control
- Stereotyped behavior induced by (-)APO, Percent of Control ([1]; (+)NPA 5 mg/kg IP after (-)APO 0.3 mg/kg IP): 100.0 ± 12.3% of Control
- Stereotyped behavior induced by (-)APO, Percent of Control ([1]; (+)NPA 30 mg/kg IP after (-)APO 0.3 mg/kg IP): 102.6 ± 8.9% of Control
- Stereotypy Score ([1]; Table 1, (+)NPA 5 mg/kg s.c. ± (-)APO 3 mg/kg s.c. (printed first: (+)NPA), maximum 3.0): 2.9 ± 0.1 rating units
- Stereotypy Score ([1]; Table 1, (+)NPA 5 mg/kg s.c. ± (-)NPA 3 mg/kg s.c. (printed first: (+)NPA), maximum 3.0): 2.9 ± 0.2 rating units
- Stereotypy Score ([1]; Table 1, (+)NPA 5 mg/kg, s.c., ± saline, maximum 3.0): 0.0 ± 0.0 rating units
- Stereotypy Score ([1]; Table 1, (-)APO 3 mg/kg s.c. ± (+)NPA 5 mg/kg s.c. (printed first: (-)APO), maximum 3.0): 2.9 ± 0.1 rating units
- Stereotypy Score ([1]; Table 1, (-)NPA 3 mg/kg s.c. ± (+)NPA 5 mg/kg s.c. (printed first: (-)NPA), maximum 3.0): 3.0 ± 0.0 rating units
- Stereotypy Score ([1]; Table 3, 0.1 mg/kg, s.c., maximum 3.0): 0 rating units
- Stereotypy Score ([1]; Table 3, 0.3 mg/kg, s.c., maximum 3.0): 0 rating units
- Stereotypy Score ([1]; Table 3, 3.0 mg/kg, s.c., maximum 3.0): 0 rating units
- Stereotypy Score ([1]; Table 3, 5.0 mg/kg, s.c., maximum 3.0): 0 rating units
- Stereotypy Score [1, 10]: 1.7 ± 0.6 rating units
- Stereotypy Score [1, 11]: 2.9 ± 0.8 rating units
- Stereotypy Score [1, 12]: 0 rating units
- stereotyped behavior (in words) ([1]; rat, in vivo): little effect on stereotyped gnawing
- Catalepsy score ([2]; 0.1 mg/kg): 0.6 ± 0.1
- Catalepsy score ([2]; 0.3 mg/kg): 0.4 ± 0.1
- Catalepsy score ([2]; 3.0 mg/kg): 0.6 ± 0.1
- Catalepsy score ([2]; 5.0 mg/kg): 0.6 ± 0.1
- cAMP production ([3]; 10 μM): 2.95 ± 0.19 picomoles per 2.5 min
- cAMP production ([3]; 100 μM): 3.19 ± 0.16 picomoles per 2.5 min
- cAMP formation, % of control at 10 µM [3, 13]: 119%
- cAMP formation, % of control at 100 µM [3, 13]: 129%
- IC50 (Dopamine Receptors [4]): 0.066 µM
- Total Activity ([5]; Table 3, 0.1 mg/kg, s.c.): 3.2 ± 1.1 percent change vs. placebo con
- Total Activity ([5]; Table 3, 0.3 mg/kg, s.c.): -5.2 ± 3.1 percent change vs. placebo con
- Total Activity ([5]; Table 3, 3.0 mg/kg, s.c.): -50.0 ± 18 percent change vs. placebo con
- Total Activity ([5]; Table 3, 5.0 mg/kg, s.c.): -52.1 ± 21 percent change vs. placebo con
- Total Activity [5, 10]: 18.8 ± 2.6 percent change
- Total Activity [5, 11]: 156.7 ± 26 percent change
- Total Activity [5, 12]: 0 percent change
- Locomotion ([6]; (+)NPA 3 mg/kg s.c. after (-)NPA 0.3 mg/kg): 14.8 ± 2.6 percent change
- Locomotion ([6]; (+)NPA 3 mg/kg s.c. after (-)NPA 3.0 mg/kg): 8.5 ± 0.6 percent change
- Locomotion ([6]; (+)NPA 3 mg/kg s.c., (-)NPA 0): 0 percent change
- ID50 to reduce the locomotor activating actions of (-)APO ([6]; s.c., (-)APO 0.3 mg/kg): 0.2 mg/kg
- ID50, spontaneous locomotor arousal ([6]; spontaneous activity): 3 mg/kg
- effect on locomotor-arousal activity (in words) [6]: dose-dependent inhibition of such activity of the R(-) aporphine
- effect on locomotor-arousal activity (in words) ([6]; listed as (+)-N-n-propylnorapomorphine): marked motor-inhibitory effect
- IC50 (Dopamine Receptors [7]): 0.06 µM
- Vmax (range of two experiments) ([8]; footnote range): 10.2- 13.2 (pmol/assay)/h
- Vmax ([8]; mean, substrate of rat liver COMT): 11.7 (pmol/assay)/h
- activity counts (arousal induced by 16 μg DA in accumbens) ([9]; 0.3 mg/kg ip): 139 ± 17 activity counts
- activity counts (arousal induced by 16 μg DA in accumbens) ([9]; 1.0 mg/kg ip): 80 ± 11 activity counts
- activity counts (arousal induced by 16 μg DA in accumbens) ([9]; 3.0 mg/kg ip): 54 ± 10 activity counts
- ED50 ([9]; Rattus norvegicus, ip, read-out: ID50, ip, DA 16 μg in accumbens): 0.4 mg/kg
- ID50 ([9]; ip, DA 16 μg in accumbens, hydrochloride): 0.45 mg/kg
- times more potent than (+)APO as inhibitor of DA in the limbic system ([9]; vs (+)APO): 8 times
